Paper PMC10324113, “Gut microbiome modulates tacrolimus pharmacokinetics through the transcriptional regulation of ABCB1” (Microbiome, 2023)

What was measured:
[1] = molecular target: T1, ABCB1 (Homo sapiens, UniProt P08183); assay: ABCB1 functionality assay: rhodamine 123 intracellular accumulation in HEK293 recombinant cells; assay type: cell-based; conditions: 5 μM Rh123, 90 min, PBS condition
T1 construct: expressed in transfected cells
Description: First, we tested the impact of FW on the intrinsic ABCB1 efflux functionality. The intracellular accumulation of rhodamine 123 (Rh123), a fluorescent-specific substrate of ABCB1 [39, 40], was performed in HEK293 recombinant cells. Rh123 accumulation was compared between control cells (Control plasmid) expressing low basal levels of ABCB1 and stably transfected cells overexpressing ABCB1 (ABCB1 plasmid), pre-exposed or not to FW for 15 min (Fig. 8A).
Briefly, HEK293 cells were transfected with a plasmid encoding for ABCB1 (ABCB1 plasmid) or an empty vector (control plasmid). HEK293 cells feature low endogenous levels of expression of ABCB1, ensuring that all ABCB1 expression originates from the transfection process. […] Finally, the cells were washed with buffer and resuspended before being analysed using a BD FACSVerse flow cytometer (for characterization) or BD FACSAria III (for cell sorting) and the BD FACSuite software (BD Bioscience, USA). […]
One day before the experiment, 9*10^4 cells (HEK293) were plated in poly-L-lysine-coated black 96-well plates in complete medium. […] Finally, the intracellular fluorescence of Rh123 was analysed by a fluorimeter SpectraMax i3x (Molecular Devices, USA); excitation wavelength was set at 485 nm and emission at 530 nm.

[2] = Stability of the TAC suspension for gavage; assay type: physicochemical; conditions: suspension in water and propylene glycol (90:10), kept at 4 °C
[3] = system: gut microbiota; assay: Faecal microbiota composition by 16S rRNA gene sequencing in TAC-treated mice; assay type: in vivo
Description: (§1) Genomic DNA was extracted from faeces using a QIAamp DNA Stool Mini Kit (Qiagen, Germany), including a bead-beating step. Absolute quantification of the total bacteria was performed by quantitative polymerase chain reaction (qPCR) using the primers Bacteria Universal P338f ([…]) and P518r ([…]). 16S rRNA gene sequencing and ensuing bioinformatics and biostatistics analyses (including amplicon sequence variants (ASV) identification) were performed as previously described. Full details are provided in the Supporting Information.
To evaluate the potential impact of TAC oral administration on the gut microbiota composition, we compared the faecal bacterial composition of mice treated with TAC (TAC) or with the vehicle (CTL). Faeces were collected at baseline (day 0) and after 2 and 5 days of treatment.
To assess the impact of ATB on the bacterial load, genomic DNA was extracted from faeces using the QIAamp DNA Stool Mini Kit (Qiagen, Germany) according to manufacturer’s instructions, with the addition of a bead-beating step. To assess the impact of TAC on gut microbiota composition, genomic DNA was extracted from faeces following the protocol Q described by Costea et al. This protocol uses a QIAamp DNA Stool Mini Kit (Qiagen, Germany), including a bead-beating step. Treatment with RNAse A was performed (10 mg/ml, Thermo Fisher Scientific, USA). DNA concentration was determined using a NanoDrop 2000 (Thermo Fisher Scientific, USA).
Amplicon sequencing of the microbiome was done at the University of Minnesota Genomics Center. Briefly, the V5-V6 region of the 16S rRNA gene was PCR-enriched using the primer pair V5F_Nextera ([…]) and V6R_Nextera ([…]) in a 25 μl PCR reaction containing 5 μl of template DNA, […], 500 nM of final concentration of primers and 0.025 U/μl of HostStar Taq+ polymerase (Qiagen Germany). PCR-enrichment reactions were conducted as follow, an initial denaturation step at 95°C for 5 min followed by 25 cycles of denaturation (20 s at 98°C), annealing (15 s at 55°C), and elongation (1 min at 72°C), and a final elongation step (5 min at 72°C). Next, the PCR-enriched samples were diluted 1:100 in water for input into library tailing PCR. The PCR reaction was analogous to the one conducted for enrichment except with a KAPA HiFi Hot Start Polymerase concentration of 0.25 U/μl, while the cycling conditions used were as follows: initial denaturation at 95°C for 5 min followed by 10 cycles of denaturation (20 s at 98°C), annealing (15 s at 55°C), and elongation (1 min at 72°C), and a final elongation step (5 min at 72°C). The primers used for tailing are the following: F-indexing primer […][i5][…] and R-indexing primer […][i7][…] GCTCGG, where [i5] and [i7] refer to the index sequence codes used by Illumina. The resulting 10 μl indexing PCR reactions were normalized using a SequalPrep normalization plate according to the manufacturer’s instructions (Life Technologies, USA). 20 μl of each normalized sample was pooled into a trough, and a SpeedVac was used to concentrate the sample pool down to 100 μl. The pool was then cleaned using 1X AMPureXP beads and eluted in 25 μl of nuclease-free water. The final pool was quantitated by QUBIT (Life Technologies, USA) and checked on a Bioanalyzer High-Sensitivity DNA Chip (Agilent Technologies, USA) to ensure correct amplicon size. The final pool was then normalized to 2 nM, denatured with NaOH, diluted to 8 pM in Illumina’s HT1 buffer, spiked with 20% PhiX, and heat denatured at 96°C for 2 minutes immediately prior to loading. A MiSeq 600 cycle v3 kit was used to sequence the pool. Raw sequences can be found in the SRA database (project ID: PRJNA877868).
Subsequent bioinformatics analyses were performed in-house as previously described. Initial quality filtering of the reads was performed with the Illumina Software, yielding an average of 51 929 pass-filter reads per sample. […]

[4] = cited from earlier work
[5] = system: total bacteria; assay: Absolute quantification of total faecal bacteria by qPCR; assay type: in vivo; conditions: CTL and TAC mice, faeces, up to 5 days
Description: as §1
To assess the impact of ATB on the bacterial load, genomic DNA was extracted from faeces using the QIAamp DNA Stool Mini Kit (Qiagen, Germany) according to manufacturer’s instructions, with the addition of a bead-beating step. […] DNA concentration was determined using a NanoDrop 2000 (Thermo Fisher Scientific, USA).
PCR was performed with a QuantStudio3 (Applied Biosystems, USA) using SYBR Green (GoTaq® qPCR mix, Promega, USA) for detection. […] Threshold was manually adjusted to reach the linear range of the log-fluorescent curves and CT values were determined using the QuantStudio software v1.4.3 (Applied Biosystems, USA). Absolute quantification was achieved through the inclusion of a standard curve (performed in duplicate) on each plate generated by diluting DNA from pure culture of L. acidophilus NCFM (five-fold serial dilution). […]

[6] = Tacrolimus whole blood pharmacokinetics after oral gavage in mice (HPLC-MS/MS, population PK model); conditions: for AUC: TAC AUC (population PK-derived)
Description: TAC was suspended in a mix of water and propylene glycol (90:10), 3 to 5 days before the first administration and kept at 4 °C. […] TAC was first dissolved in propylene glycol, then the water was added. The suspension was homogenized using an ultrasonic homogenizer 3 times for 15 s (QSonica Q700 sonicator, QSonica LLC., USA). TAC concentration was always checked before the first and after the last gavage to control for the dose. TAC or the vehicle was administered once a day (always at the same period) by oral gavage. A dose of 3 mg of TAC/kg of body weight was administered for 5 days, except in the dose determination study where different escalating doses (from 0.1 to 10 mg/kg of body weight) were tested (4 days of treatment).
It was administered via drinking water and renewed every other day.
Zosuquidar (ZSQ) was suspended in aqueous 0.5% methylcellulose (based on Matsuda et al.). A single dose of 30 mg/kg of body weight was administered 15 min before last TAC administration by oral gavage (based on Kono et al.).
Fresh faeces were collected and quickly frozen on dry ice before storage at − 80 °C until further analysis or use. Whole blood samples were collected from the tail of awake freely moving mice, at various time points (ranging from 1 to 24 h = T0, after last gavage). The blood sampling strategy used to generate the concentration–time curve of TAC blood levels in mice is detailed in the Supporting information. Before necropsy, mice were fasted for minimum 4 h and anesthetized with ketamine-xylazine or isoflurane. Hepatic and intestinal tissues were quickly collected and frozen in liquid nitrogen before storage at − 80 °C until further analysis.
Blood quantification of TAC was performed on a high-performance liquid chromatography-tandem mass spectrometry (HPLC–MS/MS) method, as already described elsewhere and further optimized for the small amounts of blood available in mouse PK studies. Briefly, the Agilent HPLC 1290 Infinity system is coupled to the 6460 Triple Quadrupole instrument. Fifty microlitres of whole blood was pre-treated and vortexed with 50 μl zinc sulfate 0.1 M, and 125 μl internal standard (ascomycin, 5 μg/L) in methanol. Samples were sonicated for 5 min, before 5 min of centrifugation at 13,500 rpm. Forty microlitres of the supernatant was injected into the system. The precolumn used was the 10 × 4 mm 3 μm Mercury Phenomenex, and the analytical column was the 4.6 × 50 mm 1.8 μm Agilent Zorbax Eclipse XDB C18, maintained at 60 °C. The mobile phase of pump 1 contained a mixture of H2O/methanol (40/60%), and pump 2 2 mM NH4^+ acetate, and aqueous 0.5% formic acid/ methanol (5/95%). […] The method is fully validated in terms of analytical performance (limit of quantification: 0.5 ng/ml; imprecision < 5%) and ion suppression effects. The laboratory participates to the TAC International Proficiency Testing Scheme (ASI, London, UK).
All data generated in this project (n = 351 PK data) were used to develop a population PK model of TAC in mice at steady-state with an average number of observations per subject of 3.5. Population PK modeling of TAC blood concentrations was performed with MonolixSuite-2020R1 software (Lixoft, France) using the stochastic approximation expectation–maximization (SAEM) algorithm. Between-subject variability (eta) was described using an exponential model and covariance between random effects was investigated. Three error models (i.e. proportional, additive and combined) to describe the residual error were tested. The influence of mouse treatment on PK parameters was also investigated through its association with the eta of PK parameters. Additional information on the building of the population PK model (e.g. the precise description of number of measurements per time points) is provided in the Supporting Information.

[7] = system: ABCB1; design: method as in PMID 11172691; conditions: cited from earlier work
[8] = system: CYP3A; design: method as in PMID 11172691; conditions: in vitro; cited from earlier work
[9] = 5 days TAC oral vs vehicle-treated mice
[10] = mice, oral gavage, steady-state, mono-compartmental population PK model, mean

T1 sequence (P08183 whole entry): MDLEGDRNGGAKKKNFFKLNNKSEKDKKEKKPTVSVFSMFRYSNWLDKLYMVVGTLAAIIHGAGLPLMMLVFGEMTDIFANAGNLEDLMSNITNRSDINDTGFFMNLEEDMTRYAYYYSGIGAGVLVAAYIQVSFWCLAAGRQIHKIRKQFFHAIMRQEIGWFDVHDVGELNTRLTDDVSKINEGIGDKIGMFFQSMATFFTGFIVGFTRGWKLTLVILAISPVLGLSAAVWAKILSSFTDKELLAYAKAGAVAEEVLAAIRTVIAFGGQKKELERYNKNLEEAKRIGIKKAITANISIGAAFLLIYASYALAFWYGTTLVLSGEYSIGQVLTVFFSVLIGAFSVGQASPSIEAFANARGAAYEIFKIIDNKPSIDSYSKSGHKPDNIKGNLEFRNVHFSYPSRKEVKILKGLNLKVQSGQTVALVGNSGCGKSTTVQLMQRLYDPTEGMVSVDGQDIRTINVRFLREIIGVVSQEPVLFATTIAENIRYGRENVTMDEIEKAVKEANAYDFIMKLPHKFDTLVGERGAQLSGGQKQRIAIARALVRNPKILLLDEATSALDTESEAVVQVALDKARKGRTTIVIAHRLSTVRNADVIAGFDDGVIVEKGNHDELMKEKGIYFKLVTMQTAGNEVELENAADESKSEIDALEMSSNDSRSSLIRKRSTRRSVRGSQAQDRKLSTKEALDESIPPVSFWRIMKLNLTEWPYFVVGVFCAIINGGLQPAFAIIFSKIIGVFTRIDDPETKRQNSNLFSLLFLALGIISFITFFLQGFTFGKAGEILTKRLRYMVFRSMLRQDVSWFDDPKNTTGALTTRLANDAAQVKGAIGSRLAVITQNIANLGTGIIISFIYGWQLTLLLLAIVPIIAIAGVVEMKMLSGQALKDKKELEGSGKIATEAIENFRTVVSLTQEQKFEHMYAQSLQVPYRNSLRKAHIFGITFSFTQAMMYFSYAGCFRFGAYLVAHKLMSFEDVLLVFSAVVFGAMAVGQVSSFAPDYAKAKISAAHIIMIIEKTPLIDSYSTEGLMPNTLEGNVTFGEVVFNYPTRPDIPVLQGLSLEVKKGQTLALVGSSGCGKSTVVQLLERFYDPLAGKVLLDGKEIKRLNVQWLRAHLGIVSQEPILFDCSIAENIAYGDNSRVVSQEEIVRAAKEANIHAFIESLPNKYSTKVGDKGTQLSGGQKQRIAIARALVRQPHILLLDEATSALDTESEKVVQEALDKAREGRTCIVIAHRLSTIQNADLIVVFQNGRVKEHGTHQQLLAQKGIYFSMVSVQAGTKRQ

Q: With `COC(=O)c1ccccc1-c1c2ccc(=N)cc-2oc2cc(N)ccc12` [Rh123, rhodamine 123] as the molecule, how does the “intracellular accumulation in ABCB1 overexpressing cells vs control cells” value [1] read?
A: Its value is “accumulated significantly less”.

Q: Which results are given for `C=CC[C@@H]1/C=C(\C)C[C@H](C)C[C@H](OC)[C@H]2O[C@@](O)(C(=O)C(=O)N3CCCC[C@H]3C(=O)O[C@H](/C(C)=C/[C@@H]3CC[C@@H](O)[C@H](OC)C3)[C@H](C)[C@@H](O)CC1=O)[C@H](C)C[C@@H]2OC` [TAC, tacrolimus]?
A: stability of the solution validated for [2]: 15 days; evenness of the gut microbiota (Simpson's and Heip's evenness indexes) [3, 9]: significant reduction; indexes combining richness and evenness (Shannon and Simpson indexes) [3, 9]: significantly reduced; richness (Chao1 and Observed ASV indexes) [3, 9]: did not affect; relative abundance of Clostridiales incertae sedis XIII ([3]; family level, 5 days TAC): decrease; relative abundance of Lachnospiraceae ([3]; family level, 5 days TAC): decrease; relative abundance of Rikenellaceae ([3]; family level, 5 days TAC): increase; relative abundance of Ruminococcaceae ([3]; family level, 5 days TAC): decrease; relative abundance of Verrucomicrobiaceae ([3]; family level, 5 days TAC): increase; relative abundance of Akkermansia ([3]; genus level, 5 days TAC): increased; relative abundance of Alistipes ([3]; genus level, 5 days TAC): increased; relative abundance of Oscillibacter ([3]; genus level, 5 days TAC): decreased; relative abundance of Ruminococcus 2 ([3]; genus level, 5 days TAC): decreased; variability in the microbiota dataset accounted for by TAC administration ([3]; genus level, after 5 days of treatment, PERMANOVA p < 0.05): 15%; parent drug recovered unchanged in the faeces or urine [4]: less than 0.5%; time of absorption peak after drug intake ([4]; human population): around 2 h; time to steady-state (5 times the half-life) ([4]; human): ~ 60 h; change in total bacterial load over time [5]: did not observe any significant change; increase in TAC whole blood exposure ([6]; ATB-treated vs control mice, both under ZSQ supplementation): 75%; reduction in TAC whole blood exposure ([6]; mice with lower intestinal microbial load due to antibiotics vs controls): 33%; time of absorption peak after the last administration ([6]; mice, 3 mg/kg oral, steady-state concentration-time curve): 2 h; Ka (absorption rate constant) [6, 10]: 1.20 h⁻¹; V (volume of distribution) [6, 10]: 1.88 L; Cl/F (oral clearance) ([6]; mice, oral gavage, steady-state, mono-compartmental population PK model, mean, n = 351 blood samples in 99 mice): 0.32 L/h; concentration at 2 h ([6]; mouse, whole blood, po, 3 mg/kg): 39.1 ng/mL; AUC ([6]; mouse, whole blood, po, 3 mg/kg, ATB-treated mice (TAC + ATB), 3 mg/kg oral 5 days, steady-state): 131 ng·h/mL; AUC ([6]; mouse, whole blood, po, 3 mg/kg, mice treated with TAC solely, 3 mg/kg oral 5 days, steady-state): 195 ng·h/mL; AUC ([6]; mouse, whole blood, po, TAC + ZSQ + ATB mice, ZSQ 30 mg/kg oral 15 min before last TAC administration): 618 ng·h/mL; AUC ([6]; mouse, whole blood, po, TAC + ZSQ mice, ZSQ 30 mg/kg oral 15 min before last TAC administration): 354 ng·h/mL

Q: What does the source list for `O[C@@H](COc1cccc2ncccc12)CN1CCN([C@@H]2c3ccccc3[C@@H]3[C@H](c4ccccc42)C3(F)F)CC1` [ZSQ, Zosuquidar]?
A: affinity for CYP3A lower than for ABCB1 ([7]; CYP3A vs ABCB1): more than 60 times; Ki [7]: ~0.059 µM; Ki [8]: ~3.8 µM; change in TAC AUC in comparison to TAC solely group ([6]; mouse, in vivo): significant increase

Q: With `C=CCC1C=C(C)CC(C)CC(OC)C2OC(O)(C(C)CC2OC)C(O)C(=O)N2CCCCC2C(=O)OC(C(C)=CC2CCC(O)C(OC)C2)C(C)C(O)CC1=O` (centres unmarked) [bacteria-derived TAC metabolite] as the molecule, how does the “bacteria-derived TAC metabolite as share of the parent drug” value ([4]; human, in vivo) read?
A: The value was ≤ 5 % of the parent drug.
